Reference: the NIST ThermoML archive (doi:10.1021/je700448v)
± gives the expanded uncertainty stated by the source.

Experiments:
[1] = Crystal; DTA
[2] = Molar enthalpy of transition or fusion; conditions: Crystal; DSC

- Normal melting temperature [1]: 61.1 ± 0.4 °C
- Molar enthalpy of transition or fusion [2]: 5.41 ± 0.124 kcal/mol
Structure (SMILES): O=Cc1ccc(Br)cc1 [4-bromobenzaldehyde]
